Results taken from article PMC6630832, “3-Vinylazetidin-2-Ones: Synthesis, Antiproliferative and Tubulin Destabilizing Activity in MCF-7 and MDA-MB-231 Breast Cancer Cells” (Pharmaceuticals, 2019).
Read-outs that look alike come from different tables or passages of the source.

What was measured:
[1] = tested on: human MCF-7 breast cancer cells; test: Cell viability (Alamar Blue) antiproliferative assay in MCF-7 cells; format: cell-based
Experimental: The human breast carcinoma cell line MCF-7, was purchased from the European Collection of Animal Cell Cultures (ECACC) and was cultured in Eagle’s minimum essential medium with 10% fetal bovine serum, 2 mM L-glutamine and 100 μg/mL penicillin/streptomycin. The medium was supplemented with 1% non-essential amino acids. The human breast carcinoma cell line MDA-MB-231 was purchased from the European Collection of Animal Cell Cultures (ECACC). MDA-MB-231 cells were maintained in Dulbecco’s modified Eagle’s medium (DMEM) supplemeted with 10% (v/v) fetal bovine serum, 2 mM L-glutamine and 100 μg/mL penicillin/streptomycin (complete medium). All media contained 100 U/mL penicillin and 100 μg/mL streptomycin. Triple negative breast cancer Hs578T cells and its invasive variant Hs578Ts(i)8 were obtained as a kind gift from Dr. Susan McDonnell, School of Chemical and Bioprocess Engineering, University College Dublin and were cultured in Dulbecco’s Modified Eagle’s Media (DMEM) with GlutaMAX^TM-I, with the same supplement as for MDA-MB-231 cells in the absence of non-essential amino acids. HEK-293T normal epithelial embryonic kidney cells were cultured in Dulbecco’s Modified Eagle’s Medium (DMEM) with GlutaMAX^TM-I in the absence of non-essential amino acids. K562 and HL-60 cells were originally obtained from the European Collection of Cell Cultures (Salisbury, UK).The K562 cells were derived from a patient in the blast crisis stage of CML HL-60 cells were derive from a patient with acute myeloid leukaemia. Cells were cultured in RPMI-1640 Glutamax medium supplemented with 10% FCS media, and 100 μg/mL penicillin/streptomycin. Cells were maintained at 37 °C in 5% CO2 in a humidified incubator. All cells were sub-cultured three times/week (adherent cells by trypsinisation).
Cells were seeded at a density of 5 × 10^3 cells/well (MCF-7), in triplicate in 96-well plates. After 24 h, cells were then treated with either medium alone, vehicle [1% ethanol (v/v)] or with serial dilutions of CA-4 or β-lactam analogue. Cell viability for MCF-7 and MDA-MB-231 was analysed using the Alamar Blue assay (Invitrogen Corp, Thermo Fisher Scientific, 168 Third Avenue, Waltham, MA, USA) according to the manufacturer’s instructions. After 72 h, Alamar Blue [10% (v/v)] was added to each well and plates were incubated for 3–5 h at 37 °C in the dark. Fluorescence was read using a 96-well fluorimeter with excitation at 530 nm and emission at 590 nm. Results were expressed as percentage viability relative to vehicle control (100%). Dose response curves were plotted and IC50 values (concentration of drug resulting in 50% reduction in cell survival) were obtained using the commercial software package Prism (GraphPad Software, Inc., 2365 Northside, Suite 560, San Diego, CA, USA). Experiments were performed in triplicate on at least three separate occasions.

[2] = tested on: NCI 60 cell line panel; test: NCI60 cell line screen (SRB assay), whole panel or sub-panels; format: cell-based
From the text: The results are summarized in Tables S3–S5, Supplementary Information.
Table S5: NCI 60 cell line mean screening results for selected compounds NCI Ref. Compound GI50 TGI LC50 […]
a GI50 and LC50 are the mean concentrations required to inhibit the growth and kill 50 % of the cells over the total NCI 60 cell line panel in the assay respectively. […]
over the total NCI 60 cell line panel.

[3] = tested on: UO-31; test: NCI60 screen (SRB), Renal cancer; format: cell-based; details: Homo sapiens
[4] = tested on: HCT-2998; test: NCI60 screen (SRB), Colon Cancer; format: cell-based
[5] = tested on: KM12; test: NCI60 screen (SRB), Colon Cancer; format: cell-based; details: Homo sapiens
[6] = tested on: RXF 393; test: NCI60 screen (SRB), Renal cancer; format: cell-based; details: Homo sapiens
[7] = tested on: IGROV1; test: NCI60 screen (SRB), Ovarian cancer; format: cell-based; details: Homo sapiens, IGROV-1
[8] = HPLC stability study in phosphate buffers; format: physicochemical; details: phosphate buffer, read-out: half-life (t½)
Experimental: Analytical high-performance liquid chromatography (HPLC) stability studies were performed using a Symmetry® column (C18, 5 µm, 4.6 × 150 mm), a Waters 2487 Dual Wavelength Absorbance detector, a Waters 1525 binary HPLC pump and a Waters 717 plus Autosampler (Waters Corporation, 34 Maple St, Milford, MA, USA). Samples were detected at wavelength of 254 nm. All samples were analysed using acetonitrile (80%) and water (20%) as the mobile phase over 10 min and a flow rate of 1 mL/min. Stock solutions were prepared by dissolving 5 mg of compound 7s, 17b and 17c in 10 mL of mobile phase. Phosphate buffers at the desired pH values (4, 7.4 and 9) were prepared in accordance with the British Pharmacopoeia monograph 2015. 30 µL of stock solution was diluted with 1 mL of appropriate buffer, shaken and injected immediately. Samples were withdrawn and analysed at time intervals of t = 0 min, 5 min, 30 min, 60 min, 90 min, 120 min, 24 h and 48 h. Plasma stability studies: 360 µL stock solution of compounds 7s, 17b and 17c were transferred to buffered plasma (plasma: buffer = 1:9, 4 mL in total) at 37 °C in screw cap container. Immediately a 250 µL aliquot was withdrawn and added to the Eppendorf tube containing 500 µL ZnSO4.7H2O solution (2% w/v ZnSO4 solution in acetonitrile: water, 1:1). The samples were then centrifuged at 10,000 rpm for 3 min and filtered through a 0.2-micron filter and injected according to the HPLC conditions listed above. Further samples were taken in the same manner every 1 h thereafter up to 6 h. A final sample was taken after 24 h. Whole blood stability studies. A 360 µL aliquot of stock solution of compounds 17b and 17c in acetonitrile was added in whole blood (4 mL, treated with 2% sodium citrate) at 37 °C and 300 µL aliquots were withdrawn at approptiate intervals. Samples were transferred to 1.5 mL Eppenddorf tubes containing 1 mL of ZnSO4. 7H2O solution (2% w/v ZnSO4 solution in acetonitrile: water, 1:1), vortexed and then centrifuged for 5 min at 14,000 rpm. The sample filtered through a 0.2-micron filter and injected according to the HPLC conditions listed above.

[9] = Homo sapiens, MCF7, Table S9, MCF-7 IC50 at which the toxicity was estimated, read-out: IC50, MCF-7
[10] = mean over the total NCI 60 cell line panel
[11] = mean over the total NCI 60 cell line panel, read-out: GI50 (mean)
[12] = mean over the total NCI 60 cell line panel, read-out: LC50 (mean)
[13] = over the full 60 cell line panel, read-out: mean GI50
[14] = MCF7, human MCF-7 breast cancer cells, 72 h, mean ± SEM, read-out: Antiproliferative Activity IC50
[15] = Homo sapiens, MCF7, 72 h, human MCF-7 breast cancer cells, 72 h, mean ± SEM, read-out: Antiproliferative Activity IC50
[16] = NCI60 Renal cancer cell line UO-31, read-out: GI50
[17] = NCI60 Colon Cancer cell line HCT-2998, read-out: GI50
[18] = NCI60 Colon Cancer cell line KM12, read-out: GI50
[19] = NCI60 Renal cancer cell line RXF 393, read-out: GI50
[20] = NCI60 Ovarian cancer cell line IGROV1, read-out: GI50

In the case of `COc1ccc(/C=C\c2cc(OC)c(OC)c(OC)c2)cc1O` [CA-4, Combretastatin A-4, reference compound], the IC50 [1, 9] is reported as 5.2 nM, the “TGI (mean)” value [2, 10] is reported as 10300 nM and the GI50 [2, 11] is reported as 99.3 nM. The CC50 [2, 12] was 85500 nM and the GI50 [2, 13] was 99 nM.
With `C=CC1C(=O)N(c2cc(OC)c(OC)c(OC)c2)C1c1ccc(OC)cc1` (stereo not shown) [Compound 7h, 4-(4-Methoxyphenyl)-1-(3,4,5-trimethoxyphenyl)-3-vinylazetidin-2-one] the IC50 [1, 14] was 20 ± 2.5 nM, the GI50 ([3]; UO-31) was 70.9 nM and the GI50 ([2]; 60 cell, read-out: GI50 (mean)) was 52.5 nM. It also gave a CC50 ([2]; 60 cell, read-out: LC50) greater than 100000 nM, a CC50 ([2]; 60 cell, read-out: LC50 (mean)) of 75900 nM and a GI50 ([2]; 60 cell, read-out: mean GI50) of 52 nM. The “TGI (mean)” value [2, 10] was 23440 nM, the GI50 [4] was 35.3 nM and the GI50 ([5]; KM12) was 35.1 nM. For the same molecule, the GI50 ([6]; RXF 393) was 28.7 nM and the GI50 [7] was 40.4 nM.
In the case of `C=CC1C(=O)N(c2cc(OC)c(OC)c(OC)c2)C1c1ccc(OC)c(O)c1` (stereo not shown) [Compound 7s, 4-[3-Hydroxy-4-methoxyphenyl]-1-(3,4,5-trimethoxyphenyl)-3-vinylazetidin-2-one], the IC50 [1, 15] is reported as 8 ± 0.71 nM, the IC50 [1, 9] is reported as 1.4 nM and the GI50 [3, 16] is reported as 11.1 nM. For the same molecule, the GI50 ([2]; 60 cell) was less than 10 nM, the GI50 ([2]; 60 cell, read-out: GI50 (mean)) was 22.9 nM and the CC50 ([2]; 60 cell, read-out: LC50) was greater than 100000 nM. The CC50 ([2]; 60 cell, read-out: LC50 (mean)) was 74100 nM, the GI50 ([2]; 60 cell, read-out: mean GI50) was 23 nM and the “TGI (mean)” value [2, 10] was 5890 nM. For the same molecule, the half-life at 14.6 µg/mL ([8]; pH 4) was greater than 24 h, the half-life at 14.6 µg/mL ([8]; pH 7.4) was greater than 24 h and the half-life at 14.6 µg/mL ([8]; pH 9) was greater than 24 h. It also gave a GI50 [4, 17] of 36.4 nM, a GI50 [5, 18] of less than 10 nM and a GI50 [6, 19] of 13.6 nM. The GI50 [7, 20] was less than 10 nM.
With `C=CC1C(=O)N(c2cc(OC)c(OC)c(OC)c2)C1c1ccc(OC)c(N)c1` (stereo not shown) [Compound 7t, 4-(3-Amino-4-methoxyphenyl)-1-(3,4,5-trimethoxyphenyl)-3-vinylazetidin-2-one] the IC50 [1, 14] was 17 ± 1.8 nM, the GI50 ([3]; UO-31) was 64 nM and the GI50 ([2]; 60 cell, read-out: GI50 (mean)) was 47.9 nM. For the same molecule, the CC50 ([2]; 60 cell, read-out: LC50 (mean)) was 89100 nM, the GI50 ([2]; 60 cell, read-out: mean GI50) was 48 nM and the “TGI (mean)” value [2, 10] was 50120 nM. It also gave a GI50 [4] of 36.8 nM, a GI50 ([5]; KM12) of 24.2 nM and a GI50 ([6]; RXF 393) of 36.6 nM. The GI50 [7] was 49.6 nM.
In the case of `C=CC1C(=O)N(c2cc(OC)c(OC)c(OC)c2)C1c1ccc(OC)c(OP(=O)(O)O)c1` (stereo not shown) [Compound 17b, 2-Methoxy-5-(1-(3,4,5-trimethoxyphenyl)-4-oxo-3-vinylazetidin-2-yl)phenyl dihydrogen phosphate], the IC50 [1, 15] is reported as 27 ± 2 nM, the GI50 [3, 16] is reported as 254 nM and the “TGI (mean)” value [2, 10] is reported as 36300 nM. For the same molecule, the GI50 [2, 11] was 72.4 nM, the CC50 [2, 12] was 87100 nM and the half-life at 14.6 µg/mL ([8]; pH 4) was greater than 24 h. For the same molecule, the half-life at 14.6 µg/mL ([8]; pH 7.4) was greater than 24 h, the half-life at 14.6 µg/mL ([8]; pH 9) was greater than 24 h and the GI50 [4, 17] was 190 nM. For the same molecule, the GI50 [5, 18] was 39.1 nM, the GI50 [6, 19] was 64.8 nM and the GI50 [7, 20] was 66.9 nM.
In the case of `CCC1C(=O)N(c2cc(OC)c(OC)c(OC)c2)C1c1ccc(OC)c(OP(=O)(O)O)c1` (stereo not shown) [Compound 17c, 5-(3-Ethyl-1-(3,4,5-trimethoxyphenyl)-4-oxoazetidin-2-yl)-2-methoxyphenyl dihydrogen phosphate], the IC50 [1, 15] is reported as 21 ± 1.5 nM, the GI50 [3, 16] is reported as 42.6 nM and the “TGI (mean)” value [2, 10] is reported as 43650 nM. The GI50 [2, 11] was 138 nM, the CC50 [2, 12] was 85100 nM and the GI50 [2, 13] was 73 nM. For the same molecule, the half-life at 14.6 µg/mL ([8]; pH 4) was greater than 24 h, the half-life at 14.6 µg/mL ([8]; pH 7.4) was greater than 24 h and the half-life at 14.6 µg/mL ([8]; pH 9) was greater than 24 h. It also gave a GI50 [4, 17] of 40.9 nM, a GI50 [5, 18] of 22 nM and a GI50 [6, 19] of 36.9 nM. For the same molecule, the GI50 [7, 20] was 37.6 nM.
